This note sets out measurements from US20120094919A1, “USE OF TRIPEPTIDES” (priority 2009, published 2012).

Common to all, as to type: cell-based
Common to all, as to conditions: 3 days incubation

For assay [1], the system named is Lumican synthesis in normal human fibroblasts (NHF). Briefly: Lumican synthesis in normal human fibroblasts (EIA). The procedure: (§1) Normal human fibroblasts (NHF) were grown in 96 well culture plates (Nunclon). After three days a tripeptide derivative of the present invention was added in medium without FCS and the cells were incubated for an additional three days. To measure Lumican synthesis an enzyme linked immunoassay (EIA) was performed. In brief: the cells were fixed with 4% paraformaldehyde, and permeabilized with 0.5 Triton-X100 followed by blocking of unspecific binding sites with 5% skim milk. To stain for Lumican the cells were incubated with goat-anti-Lumican (L-20) antibody (Santa Cruz Biotechnology, sc-27718) which was detected with goat-anti-mouse HRP conjugated (Pierce) secondary antibody. After addition of substrate Lumican synthesis was measured at 492 nm in an absorbance plate reader (Multiskan Ascent, Thermolabsystems).
(§2) The results were evaluated relative to a control consisting of cells that have not been treated with the tripeptide derivative of formula (I) and which is set to 100%.

The test system of assay [2] is Hyaluronan synthesis in normal human fibroblasts (NHF). Briefly: Hyaluronan synthesis in normal human fibroblasts (Hyaluronan Assay Kit). The procedure:
Normal human fibroblasts (NHF) were seeded in 96 well cell culture plates (Nunclon). After three days of growth a tripeptide derivative of the present invention was added in medium without FCS and the cells were incubated for an additional three days. Secreted Hyaluronan synthesis in the growth medium was measured using the Hyaluronan Assay Kit from Echelon (Salt Lake City, Utah).
as §2

Assay [3] deals with Decorin synthesis in normal human fibroblasts (NHF). Briefly: Decorin synthesis in normal human fibroblasts (EIA). On the procedure: as §1, with “well cell” for “well”, “Decorin” for “Lumican”, “goat-anti-Decorin” for “goat-anti-Lumican (L-20)”, “(R&Dsystems)” for “(Santa Cruz Biotechnology, sc-27718)”, “rabbit-anti-goat” for “goat-anti-mouse”
as §2

Where [4] appears, read: 100 μM, relative to untreated control.
Setting [5] is: 50 μM, untreated control = 100%.
Setting [6] is: 25 μM, untreated control = 100%.
The mark [7] stands for this setting: 12.5 μM, untreated control = 100%.
Where [8] appears, read: 10 μM, untreated control = 100%.

Turning to “Palm-Lys-Val-Orn-OH *2 TFA [Tripeptide No 16]”, in assay [1] (setting [4]), the “Synthesis Stimulation of Lumican” value is “inactive”. Further, the “Synthesis Stimulation of Hyaluronan” value in assay [2] (setting [4]) was “inactive”. The “Synthesis Stimulation of Decorin” value in assay [3] (setting [4]) was “inactive”.

Consider “Palm-Orn-Val-Lys-OH *2 TFA [Tripeptide No 2]”, for which, in assay [2] (setting [5]), the “Synthesis Stimulation of Hyaluronan” value came out at 180%.

Take “Myristoyl-Lys-Val-Lys-OH*2TFA [Tripeptide No 11]”: in assay [1] (setting [4]), the “Synthesis Stimulation of Lumican” value is “inactive”. Further, the “Synthesis Stimulation of Hyaluronan” value in assay [2] (setting [4]) is “inactive”. The “Synthesis Stimulation of Decorin” value in assay [3] (setting [4]) is “inactive”.

In the case of “Stearoyl-Lys-Val-Lys-OH*2TFA [Tripeptide No 14]”, the “Synthesis Stimulation of Lumican” value in assay [1] (setting [4]) was “inactive”. Besides, the “Synthesis Stimulation of Hyaluronan” value in assay [2] (setting [4]) is “inactive”. Further, in assay [3] (setting [4]), the “Synthesis Stimulation of Decorin” value is “inactive”.

“Palm-Lys-Leu-Lys-OH *2 TFA [Tripeptide No 3]”: the “Synthesis Stimulation of Hyaluronan” value in assay [2] (setting [6]) amounted to 180%.

On to “Palm-Lys-Val-Dab-OH *2 TFA [Tripeptide No 18]”, for which the “Synthesis Stimulation of Lumican” value in assay [1] (setting [4]) is “inactive”. The “Synthesis Stimulation of Hyaluronan” value in assay [2] (setting [4]) was “inactive”. For the same substance, in assay [3] (setting [4]), the “Synthesis Stimulation of Decorin” value is “inactive”.

“Caprinoyl-Lys-Val-Lys-OH*2TFA [Tripeptide No 13]”: in assay [1] (setting [4]), the “Synthesis Stimulation of Lumican” value was “inactive”. The “Synthesis Stimulation of Hyaluronan” value in assay [2] (setting [4]) is “inactive”. Moreover, the “Synthesis Stimulation of Decorin” value in assay [3] (setting [4]) was “inactive”.

Take “Tetradecyl-NH—C(O)-Dab-Val-Dab-OH *2 TFA [Tripeptide No 8]”: the “Synthesis Stimulation of Lumican” value in assay [1] (100 μM, untreated control = 100%) is 165%/100 μM. In addition, the “Synthesis Stimulation of Hyaluronan” value in assay [2] (setting [7]) was found to be 400%. The “Synthesis Stimulation of Decorin” value in assay [3] (setting [7]) came to 170%.

Regarding “Palm-Lys-Val-Lys-OH *2 TFA [Tripeptide No 1]”, in assay [1] (setting [8]), the “Synthesis Stimulation of Lumican” value came to 120%. The “Synthesis Stimulation of Hyaluronan” value in assay [2] (setting [8]) is given as 220%. Also, the “Synthesis Stimulation of Decorin” value in assay [3] (setting [6]) turned out to be 200%/25 μM.

Consider “Palm-Lys-Nva-Dab-OH *2TFA [Tripeptide No 5]”, for which, in assay [2] (setting [6]), the “Synthesis Stimulation of Hyaluronan” value is reported as 220%.

For “Palm-Lys-Ile-Dab-OH *2TFA [Tripeptide No 4]”, the “Synthesis Stimulation of Hyaluronan” value in assay [2] (setting [6]) was determined as 180%.

As to “H-Lys-Val-Lys-OH *3 TFA [Tripeptide No 15]”, the “Synthesis Stimulation of Lumican” value in assay [1] (setting [4]) was “inactive”. The “Synthesis Stimulation of Hyaluronan” value in assay [2] (setting [4]) was “inactive”. In assay [3] (setting [4]), the “Synthesis Stimulation of Decorin” value is “inactive”.

On to “Palm-Lys-Val-Dab-NH-Hexadecyl *2 TFA [Tripeptide No 7]”, for which the “Synthesis Stimulation of Hyaluronan” value in assay [2] (setting [6]) is on record as 300%.

For “Lauroyl-Lys-Val-Lys-OH*2TFA [Tripeptide No 12]”, the “Synthesis Stimulation of Lumican” value in assay [1] (setting [4]) was “inactive”. Besides, the “Synthesis Stimulation of Hyaluronan” value in assay [2] (setting [4]) is “inactive”. The “Synthesis Stimulation of Decorin” value in assay [3] (setting [4]) is “inactive”.

Turning to “Tetradecyl-NH—C(O)-Arg-Val-Arg-OH *2 TFA [Tripeptide No 10]”, the “Synthesis Stimulation of Hyaluronan” value in assay [2] (setting [6]) was determined as 220%.

As for “Palm-Lys-Val-Dap-OH *2 TFA [Tripeptide No 17]”, the “Synthesis Stimulation of Lumican” value in assay [1] (setting [4]) is “inactive”. In addition, in assay [2] (setting [4]), the “Synthesis Stimulation of Hyaluronan” value was “inactive”. The “Synthesis Stimulation of Decorin” value in assay [3] (setting [4]) was “inactive”.

Turning to “Tetradecyl-NH—C(O)-Lys-Ile-Dab-OH *2 TFA [Tripeptide No 9]”, the “Synthesis Stimulation of Hyaluronan” value in assay [2] (setting [6]) amounted to 220%.

Turning to “Palm-Lys-Leu-Dab-OH *2TFA [Tripeptide No 6]”, the “Synthesis Stimulation of Hyaluronan” value in assay [2] (setting [5]) is on record as 220%.
